According to PubChem BioAssay AID330 (DTP/NCI, 2004):
Several values for one entry are separate records, joined by “and”; a condition that tells them apart may be missing. Identical values can stand only once. Inconclusive results and toxic doses are left out. The calls were made as follows: active = survival T/C of 150% or more; inactive = T/C below 125% in these data. Square brackets hold non-standard residues; d marks the D form. Peptide text beside a SMILES is read from it. pGlu = O=C1CC[CH](C(=O)O)N1

Test system: P388 leukemia ip, CD2F1 mice, survival T/C
Experiment: NCI In Vivo Anticancer Drug Screen. Data for tumor model P388 Leukemia (intraperitoneal) in CD2F1 (CDF1) mice
Conditions: endpoint: median survival time, higher = longer survival
Method in brief: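 Mice carrying the transplanted tumor received test compound or vehicle. Survival was recorded in each group, and the value is the treated-group measurement divided by that of the vehicle-treated control group.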

[1] = dose: 50.0 mg/kg/injection, schedule: Q01DX009 (ip), vehicle: saline
[2] = dose: 100.0 mg/kg/injection, schedule: Q01DX009 (ip), vehicle: saline
[3] = dose: 200.0 mg/kg/injection, schedule: Q01DX009 (ip), vehicle: saline
[4] = dose: 50.0 mg/kg/injection, schedule: Q01DX005 (ip), vehicle: saline with Tween-80
[5] = dose: 100.0 mg/kg/injection, schedule: Q01DX005 (ip), vehicle: saline with Tween-80
[6] = dose: 200.0 mg/kg/injection, schedule: Q01DX005 (ip), vehicle: saline with Tween-80
[7] = dose: 50.0 mg/kg/injection, schedule: Q01DX005 (ip), vehicle: Klucel (hydroxypropylcellulose) (HPC)
[8] = dose: 100.0 mg/kg/injection, schedule: Q01DX005 (ip), vehicle: Klucel (hydroxypropylcellulose) (HPC)
[9] = dose: 200.0 mg/kg/injection, schedule: Q01DX005 (ip), vehicle: Klucel (hydroxypropylcellulose) (HPC)
[10] = dose: 60.0 mg/kg/injection, schedule: Q01DX005 (ip), vehicle: saline
[11] = dose: 120.0 mg/kg/injection, schedule: Q01DX005 (ip), vehicle: saline
[12] = dose: 240.0 mg/kg/injection, schedule: Q01DX005 (ip), vehicle: saline
[13] = dose: 50.0 mg/kg/injection, schedule: Q01DX009 (ip), vehicle: saline with Tween-80

Measured: T/C

Cc1cc(N(C)C)ccc1/C=C/c1ccnc2ccccc12
inactive: dose: 25.0 mg/kg/injection, schedule: Q04DX002 (ip), vehicle: saline with Tween-80 109 % of control | dose: 50.0 mg/kg/injection, schedule: Q04DX002 (ip), vehicle: saline with Tween-80 118 % of control | dose: 100.0 mg/kg/injection, schedule: Q04DX002 (ip), vehicle: saline with Tween-80 113 % of control

O[P+]1(c2ccccc2)OC(C(F)(F)F)(C(F)(F)F)C(C(F)(F)F)(C(F)(F)F)O1
inactive: [1] 108 % of control | [2] 99 % of control | [3] 107 % of control

C[N+]12OC3CCC(O)CC1CCCC2C3 (configuration not stated)
inactive: dose: 100.0 mg/kg/injection, schedule: Q01DX001 (ip), vehicle: water 100 % of control

CCOC(=O)CCCCCCCNC(=O)N1c2c(nc(N)[nH]c2=O)NCC1CNc1ccc(C(=O)NC(CCC(=O)O)C(=O)O)cc1 (configuration not stated)
inactive: dose: 50.0 mg/kg/injection, schedule: Q01DX001 (ip), vehicle: sodium bicarbonate 100 % of control | dose: 100.0 mg/kg/injection, schedule: Q01DX001 (ip), vehicle: sodium bicarbonate 101 % of control | dose: 200.0 mg/kg/injection, schedule: Q01DX001 (ip), vehicle: sodium bicarbonate 100 % of control

COCCOC(=O)C1=C(O)c2ccccc2S(=O)(=O)N1C
inactive: dose: 60.0 mg/kg/injection, schedule: Q01DX005 (ip), vehicle: Klucel (hydroxypropylcellulose) (HPC) 106 % of control | dose: 120.0 mg/kg/injection, schedule: Q01DX005 (ip), vehicle: Klucel (hydroxypropylcellulose) (HPC) 109 % of control | dose: 240.0 mg/kg/injection, schedule: Q01DX005 (ip), vehicle: Klucel (hydroxypropylcellulose) (HPC) 120 % of control

COc1cc([N+](=O)[O-])ccc1Nc1c2ccccc2nc2ccccc12
inactive: dose: 50.0 mg/kg/injection, schedule: Q01DX009 (ip), vehicle: Klucel (hydroxypropylcellulose) (HPC) 99 % of control | dose: 100.0 mg/kg/injection, schedule: Q01DX009 (ip), vehicle: Klucel (hydroxypropylcellulose) (HPC) 98 % of control | dose: 200.0 mg/kg/injection, schedule: Q01DX009 (ip), vehicle: Klucel (hydroxypropylcellulose) (HPC) 90 % of control

CCCCCCCCCCCCCCCC[N+](C)(C)C(C)c1ccccc1 (configuration not stated)
inactive: dose: 0.78 mg/kg/injection, schedule: Q04DX003 (ip), vehicle: saline with Tween-80 104 % of control and 106 % of control | dose: 1.56 mg/kg/injection, schedule: Q04DX003 (ip), vehicle: saline with Tween-80 116 % of control and 118 % of control | dose: 6.25 mg/kg/injection, schedule: Q04DX003 (ip), vehicle: saline with Tween-80 117 % of control

CC1(C)OC2(c3ccccc3)N(c3ccc([N+](=O)[O-])cc3)N=C(c3ccccc3)N2c2ccccc21 (configuration not stated)
inactive: dose: 100.0 mg/kg/injection, schedule: Q01DX001 (ip), vehicle: saline with Tween-80 89 % of control | dose: 200.0 mg/kg/injection, schedule: Q01DX001 (ip), vehicle: saline with Tween-80 89 % of control | dose: 400.0 mg/kg/injection, schedule: Q01DX001 (ip), vehicle: saline with Tween-80 88 % of control

COc1cc(C(C)(C)C)c2oc3c(c2c1)C(=O)C(C(C)(C)C)=CC3(OC)OC
inactive: [1] 104 % of control | [2] 100 % of control | [3] 97 % of control

CCOC(=O)CCC(NC(=O)C1CCC(=O)N1)C(=O)OCC (configuration not stated) ([pGlu]-Glu(OEt)-OEt; configuration not given here)
inactive: [4] 96 % of control | [5] 91 % of control | [6] 98 % of control

COC(=O)C1C2c3ccccc3C(c3ccccc32)C1(C)C(=O)OC (configuration not stated)
inactive: [7] 96 % of control | [8] 102 % of control | [9] 102 % of control

CCN(CC)CCCNc1cc(OC)cc2nc3ccccc3nc12
inactive: dose: 12.5 mg/kg/injection, schedule: Q01DX005 (ip), vehicle: saline 104 % of control | dose: 25.0 mg/kg/injection, schedule: Q01DX005 (ip), vehicle: saline 104 % of control | dose: 50.0 mg/kg/injection, schedule: Q01DX005 (ip), vehicle: saline 99 % of control and 112 % of control | dose: 100.0 mg/kg/injection, schedule: Q01DX005 (ip), vehicle: saline 114 % of control

CC(C)(O)[C@@H]1CC(=O)[C@]2(C)[C@H](CC[C@@]3(C)C(c4ccoc4)OC(=O)[C@H]4O[C@]432)[C@@]1(C)/C=C/C(=O)O (some centres not stated)
inactive: dose: 0.75 mg/kg/injection, schedule: Q01DX009 (ip), vehicle: saline + alcohol 98 % of control | dose: 1.5 mg/kg/injection, schedule: Q01DX009 (ip), vehicle: saline + alcohol 100 % of control | dose: 3.0 mg/kg/injection, schedule: Q01DX009 (ip), vehicle: saline + alcohol 97 % of control | dose: 6.0 mg/kg/injection, schedule: Q01DX009 (ip), vehicle: saline + alcohol 99 % of control

Nc1nc(C2CCCCC2)c(Br)c(=O)[nH]1
inactive: [7] 97 % of control | [8] 92 % of control | [9] 92 % of control

CSc1nc(-c2cccs2)cc(C(F)(F)F)n1
inactive: dose: 50.0 mg/kg/injection, schedule: Q04DX003 (ip), vehicle: gum acacia 105 % of control | dose: 100.0 mg/kg/injection, schedule: Q04DX003 (ip), vehicle: gum acacia 104 % of control | dose: 200.0 mg/kg/injection, schedule: Q04DX003 (ip), vehicle: gum acacia 109 % of control | dose: 400.0 mg/kg/injection, schedule: Q04DX003 (ip), vehicle: gum acacia 96 % of control

CC1=NC(C)(COC(=O)C2(C)NC(C)(CO)CO2)COC1=O (configuration not stated)
inactive: [10] 105 % of control | [11] 97 % of control | [12] 97 % of control

Nc1ccc2c(c1)CC1CC(=O)NN=C21 (configuration not stated)
inactive: [10] 98 % of control | [11] 92 % of control | [12] 98 % of control

O=C(O)C(O)C(O)C(O)C(O)CO.[Mn] (configuration not stated)
inactive: [13] 113 % of control

CC(=O)Nc1nc(CC(N)C(=O)O)c[se]1 (configuration not stated)
inactive: [7] 97 % of control | [8] 97 % of control | [9] 97 % of control

O=C=Nc1ccc(N=Nc2ccccc2)cc1
inactive: dose: 12.5 mg/kg/injection, schedule: Q04DX003 (ip), vehicle: saline with Tween-80 97 % of control | dose: 25.0 mg/kg/injection, schedule: Q04DX003 (ip), vehicle: saline with Tween-80 90 % of control | dose: 50.0 mg/kg/injection, schedule: Q04DX003 (ip), vehicle: saline with Tween-80 90 % of control | dose: 100.0 mg/kg/injection, schedule: Q04DX003 (ip), vehicle: saline with Tween-80 90 % of control and 92 % of control | dose: 150.0 mg/kg/injection, schedule: Q04DX003 (ip), vehicle: saline with Tween-80 92 % of control | dose: 225.0 mg/kg/injection, schedule: Q04DX003 (ip), vehicle: saline with Tween-80 100 % of control | dose: 335.0 mg/kg/injection, schedule: Q04DX003 (ip), vehicle: saline with Tween-80 93 % of control

CN(c1ccc(C2=NCCN2)cc1)S(=O)(=O)c1ccc(Cc2ccc(S(=O)(=O)N(C)c3ccc(C4=NCCN4)cc3)cc2)cc1
inactive: dose: 6.25 mg/kg/injection, schedule: Q01DX005 (ip), vehicle: Klucel (hydroxypropylcellulose) (HPC) 103 % of control | dose: 12.5 mg/kg/injection, schedule: Q01DX005 (ip), vehicle: Klucel (hydroxypropylcellulose) (HPC) 97 % of control

CN1[C@H]2C=CC(=O)[C@]1(Cl)[C@H]1C(=O)N(c3ccccc3)C(=O)[C@@H]21
inactive: dose: 25.0 mg/kg/injection, schedule: Q01DX005 (ip), vehicle: saline with Tween-80 106 % of control | [4] 109 % of control | [5] 105 % of control | [6] 118 % of control

CCC(=NCCCCCCN=C(CC)c1cc(C)cc([N+](=O)[O-])c1O)c1cc(C)cc([N+](=O)[O-])c1O.[Fe]
inactive: dose: 60.0 mg/kg/injection, schedule: Q01DX005 (ip), vehicle: saline with Tween-80 90 % of control | dose: 120.0 mg/kg/injection, schedule: Q01DX005 (ip), vehicle: saline with Tween-80 86 % of control | dose: 240.0 mg/kg/injection, schedule: Q01DX005 (ip), vehicle: saline with Tween-80 94 % of control

CC(=O)Nc1ccc(C(=O)CN(Cc2ccccc2)Cc2ccccc2)cc1
inactive: [7] 87 % of control | [8] 87 % of control

c1ccc2c(c1)C1CC3N=NC1C23 (configuration not stated)
inactive: [7] 105 % of control | [8] 107 % of control

COC(=O)c1n[nH]n(Cc2ccccc2)c1=O (tested in a mixture with another compound)
inactive: [7] 103 % of control | [8] 92 % of control | [9] 92 % of control

CCOC(=O)c1cc2c(=O)oc3ccccc3c2oc1=O
inactive: dose: 12.5 mg/kg/injection, schedule: Q01DX009 (ip), vehicle: saline with Tween-80 105 % of control | dose: 25.0 mg/kg/injection, schedule: Q01DX009 (ip), vehicle: saline with Tween-80 98 % of control | [13] 100 % of control
